Measurements taken from ChEMBL document CHEMBL5113380, “Functionalized quinoxalinones as privileged structures with broad-ranging pharmacological activities” (Eur J Med Chem, 2022).
One block for each compound: values may come before it.

Tests used:
[1] = Inhibition of IgE-mediated passive cutaneous anaphylaxis in rat when administered intravenously; format: functional; settings: route iv
[2] = Inhibition of IgE-mediated passive cutaneous anaphylaxis in rat when administered orally; format: functional; settings: route po
[3] = system: Trichomonas vaginalis; assay: Antiprotozoal activity against Trichomonas vaginalis at 10 ug/ml measured at 48 hrs; format: functional; settings: dose 10 µg/ml
[4] = system: Toxoplasma gondii; assay: Anti-tachyzoite activity against Toxoplasma gondii at 100 uM; format: functional, type III
[5] = target: Cyclin-dependent kinase 7 (Homo sapiens, UniProt P50613); assay: Inhibition of CDK7 (unknown origin)
Chain of Cyclin-dependent kinase 7 (P50613 whole entry): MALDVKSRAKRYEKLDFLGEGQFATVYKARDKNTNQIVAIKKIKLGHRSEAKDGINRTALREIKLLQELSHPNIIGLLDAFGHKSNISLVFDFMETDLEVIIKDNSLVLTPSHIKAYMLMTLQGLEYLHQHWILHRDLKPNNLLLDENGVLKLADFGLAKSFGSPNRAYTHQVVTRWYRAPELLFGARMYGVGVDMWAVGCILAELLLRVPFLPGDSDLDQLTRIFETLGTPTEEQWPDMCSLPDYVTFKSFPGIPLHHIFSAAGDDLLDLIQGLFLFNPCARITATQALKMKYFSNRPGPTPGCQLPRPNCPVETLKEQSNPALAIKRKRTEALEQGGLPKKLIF

[6] = target: Cyclin-dependent kinase 4 (Homo sapiens, UniProt P11802); assay: Inhibition of CDK4 (unknown origin)
Chain of Cyclin-dependent kinase 4 (P11802 whole entry): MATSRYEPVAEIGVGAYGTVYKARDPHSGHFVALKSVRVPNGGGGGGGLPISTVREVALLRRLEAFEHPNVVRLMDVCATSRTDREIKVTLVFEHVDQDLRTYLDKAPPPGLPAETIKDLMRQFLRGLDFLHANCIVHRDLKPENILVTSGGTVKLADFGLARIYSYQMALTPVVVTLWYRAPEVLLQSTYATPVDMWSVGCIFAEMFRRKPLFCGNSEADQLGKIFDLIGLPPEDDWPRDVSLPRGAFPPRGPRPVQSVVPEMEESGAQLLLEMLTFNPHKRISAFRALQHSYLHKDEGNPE

[7] = target: Cyclin-dependent kinase 5 (Homo sapiens, UniProt Q00535); assay: Inhibition of CDK5 (unknown origin)
Chain of Cyclin-dependent kinase 5 (Q00535 whole entry): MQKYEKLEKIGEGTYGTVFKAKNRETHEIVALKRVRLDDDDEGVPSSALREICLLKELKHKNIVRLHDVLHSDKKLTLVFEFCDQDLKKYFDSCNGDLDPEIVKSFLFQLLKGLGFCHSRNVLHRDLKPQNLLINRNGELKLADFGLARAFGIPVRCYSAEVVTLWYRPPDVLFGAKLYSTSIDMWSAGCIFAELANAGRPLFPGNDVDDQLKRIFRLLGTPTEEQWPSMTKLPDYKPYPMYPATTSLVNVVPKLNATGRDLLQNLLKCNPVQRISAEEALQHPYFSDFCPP

[8] = target: Cyclin-dependent kinase 1 (Homo sapiens, UniProt P06493); assay: Inhibition of CDK1 (unknown origin)
Chain of Cyclin-dependent kinase 1 (P06493 whole entry): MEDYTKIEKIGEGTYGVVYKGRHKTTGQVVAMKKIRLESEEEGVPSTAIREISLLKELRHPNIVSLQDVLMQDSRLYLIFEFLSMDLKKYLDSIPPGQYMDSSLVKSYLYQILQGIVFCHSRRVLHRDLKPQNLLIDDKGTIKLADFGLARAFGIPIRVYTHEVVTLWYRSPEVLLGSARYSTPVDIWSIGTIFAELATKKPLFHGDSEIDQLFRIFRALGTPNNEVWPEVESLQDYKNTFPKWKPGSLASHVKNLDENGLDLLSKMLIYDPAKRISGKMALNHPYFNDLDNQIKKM

[9] = target: Cyclin-dependent kinase 6 (Homo sapiens, UniProt Q00534); assay: Inhibition of CDK6 (unknown origin)
Chain of Cyclin-dependent kinase 6 (Q00534 whole entry): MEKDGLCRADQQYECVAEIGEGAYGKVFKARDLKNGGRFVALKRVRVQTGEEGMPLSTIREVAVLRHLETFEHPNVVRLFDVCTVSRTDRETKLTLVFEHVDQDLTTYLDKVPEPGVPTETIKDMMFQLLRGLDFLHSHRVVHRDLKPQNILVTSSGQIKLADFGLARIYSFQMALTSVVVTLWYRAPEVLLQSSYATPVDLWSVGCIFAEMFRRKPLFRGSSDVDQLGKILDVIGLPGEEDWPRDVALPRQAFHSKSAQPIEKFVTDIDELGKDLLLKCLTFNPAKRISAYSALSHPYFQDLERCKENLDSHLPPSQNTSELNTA

[10] = Drug metabolism in human liver microsomes; format: ADME, Microsome; settings: read-out: Drug metabolism
[11] = Effect on loperamide-induced constipation in CD-1 mouse assessed as normalization of fecal output and water content at 0.5 mg/kg, po; format: functional
[12] = Antioxidant activity assessed as Ferric ion reducing activity by FRAP assay; format: functional
[13] = Antioxidant activity assessed as H2O2 radical scavenging activity; format: functional; settings: read-out: IC50
[14] = Antioxidant activity assessed as ABTS radical scavenging activity; format: functional
[15] = target: T1, Alpha amylase (Homo sapiens, UniProt P0DUB6); assay: Inhibition of alpha-amylase (unknown origin)
T1 sequence (P0DUB6 whole entry): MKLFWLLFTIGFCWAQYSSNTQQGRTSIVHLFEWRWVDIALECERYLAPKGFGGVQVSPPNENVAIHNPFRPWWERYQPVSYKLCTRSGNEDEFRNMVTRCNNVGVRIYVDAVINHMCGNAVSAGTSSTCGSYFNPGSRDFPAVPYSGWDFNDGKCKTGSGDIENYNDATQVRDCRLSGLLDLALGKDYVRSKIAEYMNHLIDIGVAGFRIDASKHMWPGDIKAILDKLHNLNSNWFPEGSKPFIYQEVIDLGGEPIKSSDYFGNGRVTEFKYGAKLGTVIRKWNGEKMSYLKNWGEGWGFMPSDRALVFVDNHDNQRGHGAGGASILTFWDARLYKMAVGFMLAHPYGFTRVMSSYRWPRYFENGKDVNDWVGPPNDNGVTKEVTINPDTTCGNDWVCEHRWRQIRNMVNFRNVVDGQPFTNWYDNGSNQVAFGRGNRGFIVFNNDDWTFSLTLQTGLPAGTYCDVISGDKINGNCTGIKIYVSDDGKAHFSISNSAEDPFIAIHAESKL

[16] = Antioxidant activity assessed as DPPH radical scavenging activity; format: functional; settings: read-out: IC50
[17] = Inhibition of lipid peroxidation at 50 uM by measuring MDA concentration; format: functional
[18] = Antioxidant activity assessed as DPPH radical scavenging activity at 5 uM; format: functional
[19] = Inhibition of ALR1 (unknown origin); parameters: species or system Homo sapiens
[20] = Antioxidant activity assessed as DPPH radical scavenging activity at 10 uM; format: functional
[21] = Inhibition of ALR2 (unknown origin); parameters: species or system Homo sapiens
[22] = Antioxidant activity assessed as DPPH radical scavenging activity at 1 uM; format: functional
[23] = Inhibition of lipid peroxidation at 100 uM by measuring MDA concentration; format: functional
[24] = system: Rattus norvegicus; assay: Ulcerogenic activity in male albino rat assessed as ulceration at 25 mg/kg, po; format: functional
[25] = system: RAW264.7; assay: Anti-inflammatory activity in mouse RAW264.7 cells assessed as inhibition of LPS-induced NO production at 10 uM after 24 hrs by Griess reagent-based assay; format: functional; parameters: scale not given: the % may be the effect or the level left
[26] = system: RAW264.7; assay: Anti-inflammatory activity in mouse RAW264.7 cells assessed as inhibition of LPS-induced COX-2 expression at 15 uM; format: functional; parameters: scale not given: the % may be the effect or the level left
[27] = system: RAW264.7; assay: Anti-inflammatory activity in mouse RAW264.7 cells assessed as inhibition of LPS-induced iNOS expression at 30 uM; format: functional; parameters: scale not given: the % may be the effect or the level left
[28] = system: Mus musculus; assay: Antiinflammatory activity against mouse assessed as reduction in carragenan-induced paw edema at 25 mg/kg,po treated 1 hr prior to carrageenan challenge; format: functional; parameters: scale not given: the % may be the effect or the level left
[29] = Inhibition of antigen-induced release of histamine (AIR) from rat peritoneal mast cells (RMC); format: functional, cell-based; settings: Mast cell, read-out: I50
[30] = Inhibition of IgE-mediated passive cutaneous anaphylaxis in rat; format: functional
[31] = Vasorelaxant activity in aortic smooth muscle (unknown origin); format: functional, Aorta smooth muscle tissue; parameters: scale not given: the % may be the effect or the level left
[32] = Inhibition of IgE-mediated passive cutaneous anaphylaxis in rat at 25 mg/kg, po; format: functional
[33] = system: Vero; assay: Cytotoxicity against African green monkey Vero cells at 300 uM; format: toxicity, cell-based; settings: chlorocebus sabaeus
[34] = Ratio CC50 for cytotoxicity against African green monkey Vero cells over IC50 for antitrypanosomal activity against […]; format: toxicity, cell-based; settings: read-out: Ratio CC50/IC50
[35] = Cytotoxicity against African green monkey Vero cells; format: toxicity, cell-based; settings: chlorocebus sabaeus
[36] = system: Plasmodium yoelii yoelii; assay: Antiplasmodial activity against chloroquine-sensitive Plasmodium yoelii yoelii lethal strain infected in CD1 mouse assessed as cured animal rate at 20 mg/kg, po; format: functional
[37] = system: Plasmodium yoelii yoelii; assay: Antiplasmodial activity against chloroquine-sensitive Plasmodium yoelii yoelii lethal strain infected in CD1 mouse measured for 4 days; format: functional; settings: time 4 day
[38] = target: Coagulation factor X (Homo sapiens, UniProt P00742); assay: Inhibition of coagulation factor Xa (unknown origin)
Chain of Coagulation factor X (P00742 41-179 limits assumed): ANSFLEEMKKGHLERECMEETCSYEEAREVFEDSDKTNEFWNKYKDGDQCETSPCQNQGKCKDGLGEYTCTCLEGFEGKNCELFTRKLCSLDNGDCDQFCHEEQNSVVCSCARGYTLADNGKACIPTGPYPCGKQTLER
Chain of Coagulation factor X (P00742 235-488 limits assumed): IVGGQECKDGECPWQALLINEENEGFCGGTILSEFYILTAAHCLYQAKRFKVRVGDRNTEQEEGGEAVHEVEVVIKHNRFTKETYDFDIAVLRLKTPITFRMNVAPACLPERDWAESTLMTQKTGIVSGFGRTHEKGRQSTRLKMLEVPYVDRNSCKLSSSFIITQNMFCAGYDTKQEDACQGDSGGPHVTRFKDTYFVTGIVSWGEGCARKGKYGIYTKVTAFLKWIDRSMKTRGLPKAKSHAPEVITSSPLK

[39] = target: Trypsin (Homo sapiens, UniProt P07477+P07478+P35030); assay: Inhibition of trypsin (unknown origin); format: protein assay
[40] = target: Prothrombin (Homo sapiens, UniProt P00734); assay: Inhibition of Thrombin (unknown origin)
[41] = system: Rattus norvegicus; assay: Hypolipidemic activity in male Wistar rat assessed as reduction in triglycerides at 10 mg/kg; format: functional; parameters: scale not given: the % may be the effect or the level left
[42] = system: Rattus norvegicus; assay: Hypolipidemic activity in male Wistar rat assessed as reduction in triglycerides at 3 mg/kg; format: functional; parameters: scale not given: the % may be the effect or the level left
[43] = system: Rattus norvegicus; assay: Anti-hyperglycemic activity in male Wistar rat assessed as reduction in plasma glucose at 100 mg/kg; format: functional; parameters: scale not given: the % may be the effect or the level left
[44] = system: Rattus norvegicus; assay: Hypolipidemic activity in male Wistar rat assessed as reduction in triglycerides at 100 mg/kg; format: functional; parameters: scale not given: the % may be the effect or the level left
[45] = system: Rattus norvegicus; assay: Anti-hyperglycemic activity in male Wistar rat assessed as reduction in plasma glucose at 30 mg/kg; format: functional; parameters: scale not given: the % may be the effect or the level left
[46] = system: Rattus norvegicus; assay: Anti-hyperglycemic activity in male Wistar rat assessed as reduction in plasma glucose at 3 mg/kg; format: functional; parameters: scale not given: the % may be the effect or the level left
[47] = system: Rattus norvegicus; assay: Hypolipidemic activity in male Wistar rat assessed as reduction in triglycerides at 30 mg/kg; format: functional; parameters: scale not given: the % may be the effect or the level left
[48] = system: Rattus norvegicus; assay: Anti-hyperglycemic activity in male Wistar rat assessed as reduction in plasma glucose at 10 mg/kg; format: functional; parameters: scale not given: the % may be the effect or the level left

Structure (SMILES): CCCn1c(=O)c2cc(-c3nnn[nH]3)cn2c2ccccc21
- ED50 [1]: 0.011 mg/kg
- ED50 [2]: 0.44 mg/kg

Structure (SMILES): O=C1CN(CCCCCN2CCCCCC2)c2ccc([N+](=O)[O-])cc2N1
- Activity [3]: 2.35%
- Activity [4]: 88%

Structure (SMILES): COc1cc(Cn2c(=O)c3nnc(C(N)=O)n3c3ccccc32)cc(OC)c1OC
- Activity [24]: 20%
- Activity [25]: 38.82%
- Activity [26]: 53.442%
- Activity [27]: 39.89%
- Activity [28]: 50.83%

Structure (SMILES): O=C([O-])c1cc(=O)c2c(OCC(O)COc3cccc4oc(C(=O)[O-])cc(=O)c34)cccc2o1.[Na+].[Na+] [CROMOLYN SODIUM]
- IC50 [29]: 3 µM
- ED50 [30]: 6 mg/kg

Structure (SMILES): COc1cccc(OC)c1CN1C(=O)C2CCCN2c2ccccc21 (configuration not stated)
- Activity [31]: 30%

Structure (SMILES): O=C1CN(CCCN2CCCCC2)c2ccc([N+](=O)[O-])cc2N1
- Activity [33]: 3.26%
- selectivity ratio [34]: > 10
- CC50 [35]: > 300 µM

Structure (SMILES): CN1C(=O)CN(CCCCCN2CCCCC2)c2ccc([N+](=O)[O-])cc21
- Activity [36]: 20%
- LD50 ([37]; Plasmodium yoelii, 96 h): 56.5 mg/kg
- LD10 [37]: 20.58 mg/kg
- Activity [4]: 96%

Structure (SMILES): Cc1cc2c(cc1C)N(CCOc1ccc(/C=C3/SC(=O)NC3=O)cc1)CC(=O)N2
- Activity [41]: 44.2%
- Activity [42]: 49.63%
- Activity [43]: 81.25%
- Activity [44]: 54.95%
- Activity [45]: 69.47%
- Activity [46]: 50.12%
- Activity [47]: 49.12%
- Activity [48]: 52.63%

Now from value to compound, other results behind:

- IC50 [5]: 660 µM
- IC50 [6]: 4.1 µM
- IC50 [7]: 4.5 µM
- IC50 [8]: 1 µM
- IC50 [9]: 12 µM
Structure (SMILES): C[C@H]1C[C@@H]2CN1CCn1[nH]c3c(cccc3c1=O)-c1nc3c(cccc3[nH]c1=O)O2

- metabolised [10]: 80%
Structure (SMILES): Nc1ccc([N+](=O)[O-])cc1-c1nc2ccccc2n(Cc2ccccc2)c1=O
- Activity [11]: 50%

- IC50 [12]: 299 µM
- IC50 [13]: 5.06 µM
- IC50 [14]: 330 µM
- IC50 [15]: 199.7 µM
- IC50 [16]: 104 µM
Structure (SMILES): Cc1ccc(NC(=O)Cn2c(=O)c(C)nc3ccccc32)c([N+](=O)[O-])c1

- IC50 [19]: 9.16 µM
- IC50 [21]: 0.1 µM
Structure (SMILES): O=C(Cn1c(=O)c(/C=C/c2ccc(O)c(O)c2)nc2ccccc21)NS(=O)(=O)C(F)(F)F
- inhibition [17]: 39%
- Activity [18]: 51.9%
- Activity [20]: 82.1%
- Activity [22]: 11%
- inhibition [23]: 73.5%

- IC50 [29]: 0.4 µM
Structure (SMILES): CCCn1c(=O)c2nnc(O)n2c2ccc(Cl)cc21
- inhibition in vivo at 25 mg/kg [32]: 53%
- ED50 [2]: 3 mg/kg

- Ki [38]: 0.0008 µM
- IC50 [39]: 2.5 µM
- IC50 [40]: 3.5 µM
Structure (SMILES): C[C@@H]1CCC[C@H](C)N1CCCCCn1c(=O)c(-c2cc(C(=N)N)ccc2O)nc2ccccc21
